{"source": "patent US11707516B2", "about": "“Method for producing artificial recombinant rotavirus” (Osaka University, priority 2016, dated 2023)", "system": "luciferase-expressing artificial recombinant rotavirus", "assay": "Screening test for anti-rotavirus drug using luciferase-expressing rotavirus in CV-1 cells (luminescence)", "type": "cell-based, simian rotavirus", "procedure": "CV-1 cells were seeded on 96-well culture plates at 1×10^5 cells/well on the previous day of infection. The CV-1 cells were infected with wild-type SA11 or the luciferase-expressing artificial recombinant rotavirus produced in Example 4 at an MOI of 0.001. After viral adsorption at 37° C. for 1 hour, the culture supernatant was removed, and DMEM (without FBS and with 0.5 μg/mL trypsin) containing 0, 1, 5, 10, 50, 100 or 200 μM ribavirin (Sigma-Aldrich) was added. Incubation was performed at 37° C. for 14 hours. After that, the substrate stock solution of Nano-Glo Luciferase Assay System (trade name, Promega) was added to the culture medium, and luminescence was detected with an in vivo imaging system (IVIS Spectrum, manufactured by Xenogen).", "data": [{"compound": "NC(=O)c1ncn([C@@H]2O[C@H](CO)[C@@H](O)[C@H]2O)n1", "note": "[ribavirin]", "values": [{"measurement": "luminescence intensity (viral proliferation inhibitory effect)", "setting": "MOI of 0.001, 0, 1, 5, 10, 50, 100 or 200 μM ribavirin, 14 hours", "value": "decreased in a ribavirin concentration-dependent manner"}, {"measurement": "ribavirin concentration at which no luminescence was observed", "setting": "MOI of 0.001, 14 hours", "value": "≥ 50", "unit": "µM"}]}]}
